According to PubChem BioAssay AID588641 (Sanford-Burnham Center for Chemical Genomics, 2011):
Calls of active or inactive are those of the source. The rule behind the calls is not given here.

The compounds below were run against alkaline phosphatase, placental type (human) (assay: PLAP enzyme inhibition by analogs, SAR follow-up, selectivity assay for mouse IAP inhibitor project, biochemical, human PLAP isozyme, set 2 (AID 588641)). Conditions: purified human placental alkaline phosphatase, enzyme activity.

SMILES	IC50
CSc1cccc(NC(=O)CCNS(=O)(=O)c2ccc3c(c2)oc(=O)n3C)c1	> 100 µM (inactive)
COc1ccc(CNC(=O)CCNS(=O)(=O)c2ccc3[nH]c(=O)oc3c2)c(OC)c1	> 100 µM (inactive)
COc1cc(/C=N/NC(=O)c2cc(O)c(O)c(O)c2)ccc1O	> 100 µM (inactive)
O=C(CCCNS(=O)(=O)c1ccc2[nH]c(=O)oc2c1)NCc1ccc2c(c1)OCO2	> 100 µM (inactive)
O=c1[nH]c2ccc(S(=O)(=O)NCCc3ccc4c(c3)OCO4)cc2o1	> 100 µM (inactive)
O=c1[nH]c2ccc(S(=O)(=O)NCc3ccc4c(c3)OCO4)cc2o1	> 100 µM (inactive)
CSc1cccc(NC(=O)C2CCCN(S(=O)(=O)c3ccc4c(c3)oc(=O)n4C)C2)c1 (stereo not given)	> 100 µM (inactive)
Cc1ccc(NC(=O)CCNS(=O)(=O)c2ccc3c(c2)oc(=O)n3C)c(C)c1	> 100 µM (inactive)
C/C(=N\NC(=O)c1cc(O)c(O)c(O)c1)c1ccc(O)cc1O	> 100 µM (inactive)
O=C(CCNS(=O)(=O)c1ccc2[nH]c(=O)oc2c1)NCc1ccc2c(c1)OCO2	> 100 µM (inactive)
COc1ccc(OC)c(NC(=O)C2CCCN(S(=O)(=O)c3ccc4c(c3)oc(=O)n4C)C2)c1 (stereo not given)	> 100 µM (inactive)
CC(C)c1ccc(NC(=O)CCNS(=O)(=O)c2ccc3c(c2)oc(=O)n3C)cc1	> 100 µM (inactive)
O=C(N/N=C/c1cc(Br)ccc1F)c1ccc(O)cc1	> 100 µM (inactive)
CCOc1cc(C(=O)N/N=C/c2c(F)cccc2Cl)cc(OCC)c1OCC	> 100 µM (inactive)
Cc1ccc(C)c(CNC(=O)C2CCCN(S(=O)(=O)c3ccc4[nH]c(=O)oc4c3)C2)c1 (stereo not given)	> 100 µM (inactive)
COc1ccccc1CNC(=O)CCNS(=O)(=O)c1ccc2[nH]c(=O)oc2c1	> 100 µM (inactive)
CCc1ccc(NC(=O)CCNS(=O)(=O)c2ccc3c(c2)oc(=O)n3C)cc1	> 100 µM (inactive)
COc1ccc(CNC(=O)C2CCCN(S(=O)(=O)c3ccc4[nH]c(=O)oc4c3)C2)cc1 (stereo not given)	> 100 µM (inactive)
O=C(CCS(=O)(=O)Nc1ccc2[nH]c(=O)oc2c1)NCc1cccc(Cl)c1	> 100 µM (inactive)
Cc1ccccc1CNC(=O)C1CCCN(S(=O)(=O)c2ccc3[nH]c(=O)oc3c2)C1 (stereo not given)	> 100 µM (inactive)
Cc1ccc(C)c(NC(=O)CNS(=O)(=O)c2ccc3[nH]c(=O)oc3c2)c1	> 100 µM (inactive)
O=C(CCNS(=O)(=O)c1ccc2[nH]c(=O)oc2c1)NCc1ccccc1	> 100 µM (inactive)
COc1ccc(CNS(=O)(=O)c2ccc3[nH]c(=O)oc3c2)c(OC)c1	> 100 µM (inactive)

SMILES	IC50
COc1cccc(CNC(=O)CNS(=O)(=O)c2ccc3[nH]c(=O)oc3c2)c1	> 100 µM (inactive)
CCOc1ccc(CNC(=O)C2CCCN(S(=O)(=O)c3ccc4[nH]c(=O)oc4c3)C2)cc1OC (stereo not given)	> 100 µM (inactive)
COc1ccc(CNC(=O)CCCNS(=O)(=O)c2ccc3[nH]c(=O)oc3c2)cc1OC	> 100 µM (inactive)
O=C(CCNS(=O)(=O)c1ccc2[nH]c(=O)oc2c1)NCc1cccc(Cl)c1	> 100 µM (inactive)
N#Cc1cccc(CNC(=O)CCNS(=O)(=O)c2ccc3[nH]c(=O)oc3c2)c1	> 100 µM (inactive)
CC(=NNC(=O)c1ccccc1OCCOc1ccccc1)c1ccccc1F	> 100 µM (inactive)
O=C(N/N=C/c1ccc(F)c(Br)c1)c1cc(O)c(O)c(O)c1	> 100 µM (inactive)
O=C(CCNS(=O)(=O)c1ccc2[nH]c(=O)oc2c1)NCc1ccc(O)c(O)c1	> 100 µM (inactive)
CN(C)c1ccc(CNC(=O)C2CCCN(S(=O)(=O)c3ccc4[nH]c(=O)oc4c3)C2)cc1 (stereo not given)	> 100 µM (inactive)
COc1cccc(NC(=O)CCNS(=O)(=O)c2ccc3c(c2)oc(=O)n3C)c1	> 100 µM (inactive)
O=C(CCS(=O)(=O)Nc1ccc2[nH]c(=O)oc2c1)NCc1cccc(F)c1	> 100 µM (inactive)
CCc1ccc(NC(=O)C2CCCN(S(=O)(=O)c3ccc4c(c3)oc(=O)n4C)C2)cc1 (stereo not given)	> 100 µM (inactive)
COc1ccc(/C=N/NC(=O)c2cc(O)c(O)c(O)c2)c(OC)c1	> 100 µM (inactive)
CCOc1cc(C(=O)N/N=C/c2ccccc2F)cc(OCC)c1OCC	> 100 µM (inactive)
O=C(N/N=C/c1ccccc1Cl)c1cc(O)c(O)c(O)c1	> 100 µM (inactive)
O=C(NCc1ccc2c(c1)OCO2)C1CCCN(S(=O)(=O)c2ccc3[nH]c(=O)oc3c2)C1 (stereo not given)	> 100 µM (inactive)
Cc1ccc(CNC(=O)C2CCCN(S(=O)(=O)c3ccc4[nH]c(=O)oc4c3)C2)cc1 (stereo not given)	> 100 µM (inactive)
CC(C)Oc1ccc(CNC(=O)C2CCCN(S(=O)(=O)c3ccc4[nH]c(=O)oc4c3)C2)cc1 (stereo not given)	> 100 µM (inactive)
O=C(CCCNS(=O)(=O)c1ccc2[nH]c(=O)oc2c1)NCc1ccccc1Cl	> 100 µM (inactive)
O=C(NCc1ccc(F)cc1)C1CCCN(S(=O)(=O)c2ccc3[nH]c(=O)oc3c2)C1 (stereo not given)	> 100 µM (inactive)
COc1ccc(CNC(=O)CCNS(=O)(=O)c2ccc3[nH]c(=O)oc3c2)cc1	> 100 µM (inactive)
CC(C)c1ccc(NC(=O)C2CCCN(S(=O)(=O)c3ccc4c(c3)oc(=O)n4C)C2)cc1 (stereo not given)	> 100 µM (inactive)
COc1ccc(NC(=O)CCNS(=O)(=O)c2ccc3[nH]c(=O)oc3c2)cc1OC	> 100 µM (inactive)

SMILES	IC50
O=C(CCNS(=O)(=O)c1ccc2[nH]c(=O)oc2c1)NCc1ccc(Cl)cc1	> 100 µM (inactive)
O=C(CCNS(=O)(=O)c1ccc2[nH]c(=O)oc2c1)NCc1ccc(F)cc1	> 100 µM (inactive)
CC(C)c1ccc(/C=N/NC(=O)c2cc(O)c(O)c(O)c2)cc1	> 100 µM (inactive)
COc1ccc(CNC(=O)CCNS(=O)(=O)c2ccc3ccccc3c2)c(OC)c1	> 100 µM (inactive)
O=C(N/N=C/c1c(F)cccc1Cl)c1ccc(O)cc1O	> 100 µM (inactive)
O=C(CCNS(=O)(=O)c1ccc2[nH]c(=O)oc2c1)NCc1cccc(C(F)(F)F)c1	> 100 µM (inactive)
Cc1cc(NC(=O)CCNS(=O)(=O)c2ccc3[nH]c(=O)oc3c2)ccc1Br	> 100 µM (inactive)
O=C(CCNS(=O)(=O)c1ccc2ccccc2c1)NCCc1ccc2c(c1)OCO2	> 100 µM (inactive)
COc1cccc(/C=N/NC(=O)c2cc(O)c(O)c(O)c2)c1O	> 100 µM (inactive)
COc1ccc(C(=O)N/N=C/c2c(F)cccc2Cl)cc1OC	> 100 µM (inactive)
O=C(N/N=C/c1c(F)cccc1F)c1ccc(O)cc1	> 100 µM (inactive)
N#Cc1ccc(NC(=O)CNS(=O)(=O)c2ccc3[nH]c(=O)oc3c2)cc1	> 100 µM (inactive)
COc1ccc(CNC(=O)CNS(=O)(=O)c2ccc3[nH]c(=O)oc3c2)c(OC)c1	> 100 µM (inactive)
COc1ccc(CNC(=O)CCNS(=O)(=O)c2ccc3c(c2)CCC3)c(OC)c1	> 100 µM (inactive)
COc1ccc(CNC(=O)CNS(=O)(=O)c2ccc3[nH]c(=O)oc3c2)cc1	> 100 µM (inactive)
O=C(N/N=C/c1c(Cl)cccc1Cl)c1cc(O)c(O)c(O)c1	> 100 µM (inactive)
O=C(N/N=C/c1c(F)cccc1Cl)c1cc(O)c(O)c(O)c1	> 100 µM (inactive)
COc1ccc(NC(=O)CCCNS(=O)(=O)c2ccc3[nH]c(=O)oc3c2)c(OC)c1	> 100 µM (inactive)
Cc1ccc(NC(=O)CCNS(=O)(=O)c2ccc3[nH]c(=O)oc3c2)cc1C	> 100 µM (inactive)
COc1ccc(NC(=O)CCCNS(=O)(=O)c2ccc3[nH]c(=O)oc3c2)cc1OC	> 100 µM (inactive)
O=C(CCCNS(=O)(=O)c1ccc2[nH]c(=O)oc2c1)NCCc1ccc(O)cc1	> 100 µM (inactive)
COc1ccc(NC(=O)CCNS(=O)(=O)c2ccc3ccccc3c2)cc1OC	> 100 µM (inactive)
O=C(N/N=C/c1ccccc1F)c1ccccc1OCc1ccccc1	> 100 µM (inactive)

SMILES	IC50
O=C(CCNS(=O)(=O)c1ccc2c(c1)CCC2)NCCc1ccc2c(c1)OCO2	> 100 µM (inactive)
Cc1ccc(NC(=O)CCNS(=O)(=O)c2ccc3c(c2)oc(=O)n3C)cc1C	> 100 µM (inactive)
Cc1ccc(CNC(=O)CCNS(=O)(=O)c2ccc3[nH]c(=O)oc3c2)cc1	> 100 µM (inactive)
Cc1ccc(C)c(NC(=O)CCNS(=O)(=O)c2ccc3[nH]c(=O)oc3c2)c1	> 100 µM (inactive)
O=C(CCNS(=O)(=O)c1ccc2[nH]c(=O)oc2c1)NCc1ccc(C(F)(F)F)cc1	> 100 µM (inactive)
COc1cccc(CNS(=O)(=O)c2ccc3[nH]c(=O)oc3c2)c1	> 100 µM (inactive)
Cc1ccccc1CNC(=O)CCCNS(=O)(=O)c1ccc2[nH]c(=O)oc2c1	> 100 µM (inactive)
O=C(NN=Cc1ccccc1F)c1ccc(O)cc1	> 100 µM (inactive)
O=C(N/N=C/c1ccccc1F)c1ccc(O)cc1	> 100 µM (inactive)
Cc1ccc(C)c(NC(=O)CCNS(=O)(=O)c2ccc3ccccc3c2)c1	> 100 µM (inactive)
COc1ccc(NS(=O)(=O)c2ccc3[nH]c(=O)oc3c2)cc1OC	> 100 µM (inactive)
O=c1[nH]c2ccc(S(=O)(=O)Nc3ccc4c(c3)OCO4)cc2o1	> 100 µM (inactive)
O=C(N/N=C/c1ccc(F)cc1F)c1ccc(O)cc1	> 100 µM (inactive)
Cc1ccc(C)c(NC(=O)C2CCCN(S(=O)(=O)c3ccc4c(c3)oc(=O)n4C)C2)c1 (stereo not given)	> 100 µM (inactive)
O=C(CCNS(=O)(=O)c1ccc2[nH]c(=O)oc2c1)Nc1ccc2c(c1)OCO2	> 100 µM (inactive)
O=C(CCNS(=O)(=O)c1ccc2[nH]c(=O)oc2c1)NCc1cccc(F)c1	> 100 µM (inactive)
COc1ccc(CNC(=O)CCCNS(=O)(=O)c2ccc3[nH]c(=O)oc3c2)c(OC)c1	> 100 µM (inactive)
O=C(N/N=C/c1ccc(Cl)c(Cl)c1)c1cc(O)c(O)c(O)c1	> 100 µM (inactive)
COc1cccc(C(=O)N/N=C/c2ccccc2F)c1	> 100 µM (inactive)
Cc1ccc(NC(=O)CCNS(=O)(=O)c2ccc3c(c2)oc(=O)n3C)cc1	> 100 µM (inactive)
COc1ccc(OC)c(NC(=O)CCNS(=O)(=O)c2ccc3c(c2)oc(=O)n3C)c1	> 100 µM (inactive)
